Like-named read-outs stand apart in the source and are kept apart here. A value given as a limit tells only on which side of the number the result lay.

Results on 7 compounds are retold here after article PMC10343299, “S-Ethyl-Isothiocitrullin-Based Dipeptides and 1,2,4-Oxadiazole Pseudo-Dipeptides: Solid Phase Synthesis and Evaluation as NO Synthase Inhibitors” (Molecules, 2023).

The target of one data set is T1, bovine eNOS (Bos taurus, UniProt P29473).
T1 construct: Full-length recombinant rat nNOS, mouse iNOS, bovine eNOS; made in house; host or cells: Escherichia coli
T1 sequence (P29473 whole entry): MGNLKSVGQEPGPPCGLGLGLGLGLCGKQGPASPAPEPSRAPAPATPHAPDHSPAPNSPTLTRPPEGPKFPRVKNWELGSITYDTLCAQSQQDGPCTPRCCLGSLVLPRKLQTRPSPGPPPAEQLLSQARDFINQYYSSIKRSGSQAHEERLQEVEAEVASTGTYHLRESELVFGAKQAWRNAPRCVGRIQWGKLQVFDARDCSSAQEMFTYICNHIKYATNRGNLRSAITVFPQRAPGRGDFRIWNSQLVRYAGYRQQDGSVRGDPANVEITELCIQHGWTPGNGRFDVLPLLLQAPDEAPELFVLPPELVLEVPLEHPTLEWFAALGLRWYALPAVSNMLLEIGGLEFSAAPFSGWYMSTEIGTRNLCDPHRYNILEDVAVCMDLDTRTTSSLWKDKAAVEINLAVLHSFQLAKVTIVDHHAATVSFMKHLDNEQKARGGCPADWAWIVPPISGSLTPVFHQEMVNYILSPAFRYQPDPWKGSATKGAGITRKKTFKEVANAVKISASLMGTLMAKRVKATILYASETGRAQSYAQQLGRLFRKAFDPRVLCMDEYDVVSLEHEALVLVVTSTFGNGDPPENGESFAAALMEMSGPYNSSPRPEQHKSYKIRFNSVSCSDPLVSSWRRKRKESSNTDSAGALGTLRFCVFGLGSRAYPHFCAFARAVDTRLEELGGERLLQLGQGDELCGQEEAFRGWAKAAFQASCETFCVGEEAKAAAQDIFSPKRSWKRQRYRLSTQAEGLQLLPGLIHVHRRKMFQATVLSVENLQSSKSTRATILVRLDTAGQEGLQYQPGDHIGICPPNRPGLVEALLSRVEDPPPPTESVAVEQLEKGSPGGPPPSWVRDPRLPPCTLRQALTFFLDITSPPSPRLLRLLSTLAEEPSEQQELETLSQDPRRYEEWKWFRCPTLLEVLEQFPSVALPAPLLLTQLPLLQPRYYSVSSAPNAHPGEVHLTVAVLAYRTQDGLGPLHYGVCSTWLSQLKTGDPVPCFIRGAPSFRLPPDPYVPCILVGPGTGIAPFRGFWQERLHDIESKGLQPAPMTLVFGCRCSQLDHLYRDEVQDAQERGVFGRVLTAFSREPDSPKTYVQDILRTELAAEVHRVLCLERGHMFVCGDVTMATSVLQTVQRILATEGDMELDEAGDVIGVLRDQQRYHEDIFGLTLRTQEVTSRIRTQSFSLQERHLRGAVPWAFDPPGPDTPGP
The data set is described as follows: NOS inhibition, oxyhemoglobin (hemoglobin capture) test, recombinant eNOS. Type of data set: biochemical. The conditions noted are these: recombinant enzyme, 10 µM arginine, triplicate, NI = <50% inhibition at 100 μM, read-out: IC50 (μM) eNOS (Bovine).

Another data set deals with T2, rat nNOS (Rattus norvegicus, UniProt P29476).
T2 construct: Full-length recombinant rat nNOS, mouse iNOS, bovine eNOS; made in house; host or cells: Escherichia coli
T2 sequence (P29476 whole entry): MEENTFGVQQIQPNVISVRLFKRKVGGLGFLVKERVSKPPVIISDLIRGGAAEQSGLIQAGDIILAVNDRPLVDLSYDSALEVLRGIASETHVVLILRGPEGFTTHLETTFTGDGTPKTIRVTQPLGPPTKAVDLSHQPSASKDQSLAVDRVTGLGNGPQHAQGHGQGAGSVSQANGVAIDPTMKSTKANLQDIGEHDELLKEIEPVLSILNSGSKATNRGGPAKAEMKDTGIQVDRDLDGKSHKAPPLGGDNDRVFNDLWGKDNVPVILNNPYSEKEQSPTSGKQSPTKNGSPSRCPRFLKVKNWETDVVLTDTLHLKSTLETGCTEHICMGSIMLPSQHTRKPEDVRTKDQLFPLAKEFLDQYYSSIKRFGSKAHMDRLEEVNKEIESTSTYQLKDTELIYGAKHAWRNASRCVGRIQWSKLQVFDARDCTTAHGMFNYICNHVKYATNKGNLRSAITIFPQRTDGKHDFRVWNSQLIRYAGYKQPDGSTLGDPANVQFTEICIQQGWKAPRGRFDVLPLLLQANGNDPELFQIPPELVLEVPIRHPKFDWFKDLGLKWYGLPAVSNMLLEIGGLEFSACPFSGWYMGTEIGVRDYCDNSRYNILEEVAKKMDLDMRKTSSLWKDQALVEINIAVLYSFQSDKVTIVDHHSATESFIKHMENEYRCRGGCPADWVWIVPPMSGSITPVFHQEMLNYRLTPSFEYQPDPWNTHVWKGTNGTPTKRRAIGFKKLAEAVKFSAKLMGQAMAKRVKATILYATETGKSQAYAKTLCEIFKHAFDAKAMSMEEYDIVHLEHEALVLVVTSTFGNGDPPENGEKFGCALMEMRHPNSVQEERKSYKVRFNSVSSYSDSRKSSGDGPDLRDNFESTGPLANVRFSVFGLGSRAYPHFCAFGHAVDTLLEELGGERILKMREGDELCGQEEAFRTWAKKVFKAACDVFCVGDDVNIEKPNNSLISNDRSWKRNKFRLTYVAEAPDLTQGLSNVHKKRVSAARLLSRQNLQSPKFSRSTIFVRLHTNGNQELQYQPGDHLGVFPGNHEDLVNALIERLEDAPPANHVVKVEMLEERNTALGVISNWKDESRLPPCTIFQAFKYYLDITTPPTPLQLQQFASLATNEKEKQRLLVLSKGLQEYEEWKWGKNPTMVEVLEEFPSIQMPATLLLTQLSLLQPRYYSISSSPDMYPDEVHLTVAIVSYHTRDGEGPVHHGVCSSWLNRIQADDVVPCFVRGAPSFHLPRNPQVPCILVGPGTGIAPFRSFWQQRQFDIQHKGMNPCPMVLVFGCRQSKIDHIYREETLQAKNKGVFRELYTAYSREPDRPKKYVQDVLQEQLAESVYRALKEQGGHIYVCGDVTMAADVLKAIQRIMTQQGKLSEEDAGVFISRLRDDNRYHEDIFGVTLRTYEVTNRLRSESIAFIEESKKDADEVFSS
The data set is described as follows: NOS inhibition, oxyhemoglobin (hemoglobin capture) test, recombinant nNOS. Format: biochemical. To be noted: recombinant enzyme, 10 µM arginine, triplicate, NI = <50% inhibition at 100 μM. The procedure: (§1) The inhibitory effects of all compounds against the three recombinant NOSs (rat nNOS, mouse iNOS, and bovine eNOS) were evaluated in 96-well plates using the oxyhemoglobin test. A first screening at 100 and 10 μM was performed, and the IC50 values were measured for compounds showing more than 50% inhibition at 100 μM (Table 1 and Table 2).
(§2) Full-length recombinant rat nNOS, mouse iNOS, bovine eNOS, and the heme domains of rat brain nNOS and mouse iNOS were expressed in Escherichia coli and purified as described previously.
(§3) NOS catalytic activity was measured using the hemoglobin capture assay. The test was performed at 30 °C in 96-well microplates using a final volume of 200 µL. The assay mixture contained 100 µM NADPH, 10 µM BH4, 6 µM HbO2, 100 µM DTT, 5 µM FAD, 5 µM FMN, 10 µM (nNOS and eNOS), or 20 µM (iNOS) arginine, all in a 100 mM Hepes buffer, pH 7.5, and, for constitutive n- and e-NOS, 10 µg/mL calmodulin, and 1 mM CaCl2. The studied compounds were introduced as 2 μL of ×100 concentrated solutions in DMSO, and the control experiments were performed with DMSO or the buffer only. The kinetics of NO production were measured at 401 nm using an Infinite F500 microplate reader (Tecan, Singapore).

For data set [1], the target named is T3, mouse iNOS (Mus musculus, UniProt P29477).
T3 construct: Full-length recombinant rat nNOS, mouse iNOS, bovine eNOS; made in house; host or cells: Escherichia coli
T3 sequence (P29477 1-1144): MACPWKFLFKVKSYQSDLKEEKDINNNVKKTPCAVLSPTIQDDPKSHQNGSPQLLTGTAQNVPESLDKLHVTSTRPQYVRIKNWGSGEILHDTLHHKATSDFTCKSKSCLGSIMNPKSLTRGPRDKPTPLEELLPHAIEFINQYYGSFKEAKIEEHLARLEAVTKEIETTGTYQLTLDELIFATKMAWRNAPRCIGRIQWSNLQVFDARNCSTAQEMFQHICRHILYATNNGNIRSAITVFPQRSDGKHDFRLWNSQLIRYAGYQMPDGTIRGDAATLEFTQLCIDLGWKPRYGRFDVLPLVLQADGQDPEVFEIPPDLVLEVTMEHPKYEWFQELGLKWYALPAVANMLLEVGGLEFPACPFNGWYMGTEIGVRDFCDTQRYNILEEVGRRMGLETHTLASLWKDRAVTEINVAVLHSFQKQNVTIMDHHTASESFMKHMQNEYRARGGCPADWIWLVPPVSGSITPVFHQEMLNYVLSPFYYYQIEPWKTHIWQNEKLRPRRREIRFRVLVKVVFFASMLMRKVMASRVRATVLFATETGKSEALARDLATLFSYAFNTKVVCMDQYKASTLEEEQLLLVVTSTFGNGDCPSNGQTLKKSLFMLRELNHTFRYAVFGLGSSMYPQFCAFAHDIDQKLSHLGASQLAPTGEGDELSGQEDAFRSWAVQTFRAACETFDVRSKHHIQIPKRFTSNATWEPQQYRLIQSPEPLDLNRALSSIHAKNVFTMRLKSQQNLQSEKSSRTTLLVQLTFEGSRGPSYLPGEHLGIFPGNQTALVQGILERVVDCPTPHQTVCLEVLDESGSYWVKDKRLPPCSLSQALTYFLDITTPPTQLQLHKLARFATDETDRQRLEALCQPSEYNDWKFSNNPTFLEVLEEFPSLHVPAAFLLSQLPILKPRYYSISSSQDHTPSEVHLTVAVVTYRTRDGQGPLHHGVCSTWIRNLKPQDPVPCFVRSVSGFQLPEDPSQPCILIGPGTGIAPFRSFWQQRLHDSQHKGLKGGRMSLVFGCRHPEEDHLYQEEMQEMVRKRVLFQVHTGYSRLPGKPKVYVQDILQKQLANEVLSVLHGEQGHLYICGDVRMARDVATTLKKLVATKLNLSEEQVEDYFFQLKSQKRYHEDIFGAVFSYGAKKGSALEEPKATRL
The data set is described as follows: NOS inhibition, oxyhemoglobin (hemoglobin capture) test, recombinant iNOS. Type of data set: biochemical. The conditions noted are these: recombinant enzyme, 20 µM arginine, triplicate, NI = <50% inhibition at 100 μM. On the procedure: as §1, §2, §3

The next data set deals with T4, iNOS in RAW 264.7 cells (Mus musculus, UniProt P29477).
T4 construct: In RAW 264.7 cells, iNOS was induced by LPS (1 µg/mL, Sigma-Aldrich) for 24 h; endogenous in cells; host or cells: RAW 264.7 murine macrophages, LPS-induced
The data set is described as follows: Inhibition of NO production (nitrite, Griess) in LPS-stimulated cells. To be noted: RAW264.7; RAW 264.7, LPS 1 µg/mL, 100 μM compound; read-out: Inhibition of intracellular NO production. Format: cell-based, murine. The procedure:
We evaluated the ability of selected compounds (dipeptides 7, 8, and 21 and 1,2,4-oxadiazoles 30 and 40) to inhibit iNOS in RAW 264.7 cells (Figure 2), where iNOS was induced by LPS (1 µg/mL). iNOS activity was measured following LPS induction by quantifying nitrite accumulation in the supernatant. […] A similar result was previously reported.
In RAW 264.7 cells, iNOS was induced by LPS (1 µg/mL, Sigma-Aldrich) for 24 h. All studied compounds were incubated with cells during the last 24 h.
(§4) Cellular NO production was measured using the Griess reagent (Sigma-Aldrich), which evaluates the nitrite content in culture media. Cellular toxicity was estimated by the MTT assay (Sigma-Aldrich) in RAW 264.7 cells after the induction (or not) of iNOS by LPS, according to the manufacturer’s recommendations.

The test system of data set [2] is RAW 264.7 cells. The data set is described as follows: Cell viability, MTT assay. Type of data set: cell-based, murine. The procedure:
Cell viability was evaluated in the murine macrophage RAW 264.7 cells using an MTT assay for compounds 18, 21, 26, and 30. This experiment was performed without or with LPS (1 µg/mL), which induces iNOS expression (Figure S1). […] Compound 30 only killed 20% of the cells at 500 μM (Figure S1A). In the presence of LPS (1 µg/mL), cell viability was reduced by 30% due to the inhibition by NO of key enzymes involved in cell metabolism (Figure S1B).
The macrophage cell line RAW 264.7 (a gift from Dr. A. Blangy, Montpellier, France) was cultured in Dulbecco’s Modified Eagle’s Medium (DMEM) supplemented with 10% FCS, 100 units/mL penicillin, 100 µg/mL streptomycin, and 2 mM L-glutamine.
as §4
In general terms: Formazan colour is commonly taken as a measure of viable cells.

Data set [3] relates to mouse iNOS. The data set is described as follows: NOS inhibition, oxyhemoglobin (hemoglobin capture) test, recombinant iNOS. Format: biochemical. The conditions noted are these: from IC50 values. The procedure: as §1, §2, §3
The target of data set [4] is eNOS. Set-up: method as in PMID 14718923. To be noted: read-out: Experimental Ki eNOS; cited from earlier work.
Data set [5] deals with nNOS. Set-up: method as in PMID 14718923. To be noted: cited from earlier work.
The next data set concerns iNOS. More on the design: method as in PMID 32027778. To be noted: Figure 1; previously described compounds; cited from earlier work.
Data set [6] concerns nNOS. More on the design: method as in PMID 32027778. The conditions noted are these: Figure 1; previously described compounds; cited from earlier work.
For data set [7], the system named is eNOS. More on the design: method as in PMID 32027778. The conditions noted are these: Figure 1; previously described compounds; cited from earlier work.
Data set [8] relates to RAW 264.7 cells. Set-up: method as in PMID 32027778. To be noted: RAW 264.7, LPS; cited from earlier work.
Data set [9] addresses T5, oxygenase domain of iNOS (iNOSoxy) (Mus musculus, UniProt P29477).
T5 construct: the oxygenase domain of nNOS (nNOSoxy) and iNOS (iNOSoxy); made in house; host or cells: Escherichia coli
T5 sequence (P29477 1-498 limits assumed): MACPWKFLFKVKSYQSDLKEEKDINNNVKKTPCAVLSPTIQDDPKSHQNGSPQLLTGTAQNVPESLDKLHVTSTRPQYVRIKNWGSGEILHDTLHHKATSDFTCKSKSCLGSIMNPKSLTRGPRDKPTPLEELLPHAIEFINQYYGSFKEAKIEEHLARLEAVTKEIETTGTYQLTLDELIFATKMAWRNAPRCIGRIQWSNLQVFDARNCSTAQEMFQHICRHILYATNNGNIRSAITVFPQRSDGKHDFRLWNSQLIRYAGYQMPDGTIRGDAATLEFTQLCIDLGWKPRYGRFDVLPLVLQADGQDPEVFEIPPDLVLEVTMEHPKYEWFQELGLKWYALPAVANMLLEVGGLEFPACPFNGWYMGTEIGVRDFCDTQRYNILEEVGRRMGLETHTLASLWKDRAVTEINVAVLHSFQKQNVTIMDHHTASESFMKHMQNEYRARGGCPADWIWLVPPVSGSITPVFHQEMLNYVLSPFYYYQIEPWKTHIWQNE
The data set is described as follows: UV-visible difference spectroscopy titration of iNOSoxy. Type of data set: binding. The conditions noted are these: UV/Vis difference spectroscopy, ± SD, three experiments; read-out: Apparent equilibrium constant Ks iNOSoxy.
Description: (§5) We performed UV–visible difference spectroscopy to analyze the interaction mode of some inhibitors with the heme-active site of NOS [54]. We have studied the effects of dipeptide-like compounds 7, 17, 19, 23, and 27 and 1,2,4-oxadiazole 35 on the UV–visible spectra of the oxygenase domain of nNOS (nNOSoxy) and iNOS (iNOSoxy). As expected, when added stepwise to n- and iNOSoxy, all selected compounds elicited different spectra with a trough at ~425 nm and a peak at ~395 nm, similar to the substrate L-arginine. This profile is characteristic of type I interactions, meaning that they are bound in close proximity to the heme prosthetic group and shifted the spin state equilibrium to the pentacoordinated heme–Fe^III state. Double reverse plotting of the differences in absorbance between the peak at ~395 nm and valley at ~425 nm (ΔA395–425 nm) as a function of the concentration of the added compounds allowed calculating apparent binding constants (Ks) (Table 3). The reference inhibitor SEITU [55] tightly bound both NOS isoforms with high affinity but no selectivity. With the exception of the dipeptide-like 27 and the heterocyclic analog 35, which similarly interacted with both proteins, other compounds preferentially bound nNOSoxy over iNOSoxy with apparent affinities close to SEITU for this isoform.
as §2
(§6) This study was performed as previously described.

The target of data set [10] is T6, oxygenase domain of nNOS (nNOSoxy) (Rattus norvegicus, UniProt P29476).
T6 construct: the oxygenase domain of nNOS (nNOSoxy) and iNOS (iNOSoxy); made in house; host or cells: Escherichia coli
T6 sequence (P29476 1-720 limits assumed): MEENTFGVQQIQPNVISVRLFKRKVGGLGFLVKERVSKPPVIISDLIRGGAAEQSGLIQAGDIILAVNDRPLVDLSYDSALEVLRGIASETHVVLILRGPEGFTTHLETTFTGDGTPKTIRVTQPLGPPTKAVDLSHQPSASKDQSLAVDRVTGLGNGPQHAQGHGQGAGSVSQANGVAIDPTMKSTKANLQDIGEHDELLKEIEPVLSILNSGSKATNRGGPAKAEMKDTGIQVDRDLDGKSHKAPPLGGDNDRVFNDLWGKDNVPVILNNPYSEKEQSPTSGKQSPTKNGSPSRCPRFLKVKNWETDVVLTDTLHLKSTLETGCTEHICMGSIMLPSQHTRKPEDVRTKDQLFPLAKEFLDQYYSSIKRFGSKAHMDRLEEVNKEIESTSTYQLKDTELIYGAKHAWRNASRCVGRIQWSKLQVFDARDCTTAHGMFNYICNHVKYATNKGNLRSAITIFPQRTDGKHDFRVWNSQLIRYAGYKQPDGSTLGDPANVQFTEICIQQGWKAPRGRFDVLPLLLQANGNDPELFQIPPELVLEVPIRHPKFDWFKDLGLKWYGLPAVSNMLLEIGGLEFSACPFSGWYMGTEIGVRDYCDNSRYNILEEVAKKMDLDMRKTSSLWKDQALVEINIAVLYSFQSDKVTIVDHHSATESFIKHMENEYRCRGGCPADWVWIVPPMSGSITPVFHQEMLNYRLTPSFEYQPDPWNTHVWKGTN
The data set is described as follows: UV-visible difference spectroscopy titration of nNOSoxy. Format: binding. The conditions noted are these: UV/Vis difference spectroscopy, ± SD, three experiments; read-out: Apparent equilibrium constant Ks nNOSoxy.
Description: as §5, §2, §6

Description for bovine eNOS: The inhibitory effects of all compounds against the three recombinant NOSs (rat nNOS, mouse iNOS, and bovine eNOS) were evaluated in 96-well plates using the oxyhemoglobin test [53].
NOS catalytic activity was measured using the hemoglobin capture assay [53]. The test was performed at 30 °C in 96-well microplates using a final volume of 200 µL. The assay mixture contained 100 µM NADPH, 10 µM BH4, 6 µM HbO2, 100 µM DTT, 5 µM FAD, 5 µM FMN, 10 µM (nNOS and eNOS), or 20 µM (iNOS) arginine, all in a 100 mM Hepes buffer, pH 7.5, and, for constitutive n- and e-NOS, 10 µg/mL calmodulin, and 1 mM CaCl2. The studied compounds were introduced as 2 μL of ×100 concentrated solutions in DMSO, and the control experiments were performed with DMSO or the buffer only. The kinetics of NO production were measured at 401 nm using an Infinite F500 microplate reader (Tecan, Singapore).

In general, IC50 refers to the concentration that gives 50% inhibition. With `CCSC(=N)NCCC[C@H](N)C(=O)N[C@H]1CCCN(Cc2cccc(Br)c2)C1` [Compound 21], the inhibition at 100 µM is under 50% at bovine eNOS (dipeptide-like series) and 80% at iNOS in RAW 264.7 cells. The figures for the IC50 on rat nNOS (dipeptide-like series) and at mouse iNOS [1] (dipeptide-like series) were 1 µM and 45.5 µM, respectively. For the same compound, the “Reversal of LPS-induced reduction of cell viability” value in the data set with RAW 264.7 cells [2] (RAW 264.7, LPS 1 µg/mL) is reported as “none partially reversed the LPS effect”. Also, the “Effect on cell viability (MTT)” value with RAW 264.7 cells [2] (RAW 264.7, absence of LPS, up to 100 μM) was “did not modify cell viability”.
With `CCSC(=N)NCCC[C@H](N)c1nc(CCN(Cc2ccccc2[N+](=O)[O-])Cc2ccccc2[N+](=O)[O-])no1` [Compound 40], the inhibition at 100 µM at bovine eNOS (1,2,4-oxadiazole series) was under 50%. In addition, the IC50 on rat nNOS (1,2,4-oxadiazole series) came out at 61 µM. Besides, in the data set with mouse iNOS [3], the “Selectivity for iNOS toward eNOS” value was over 50 fold and the “Selectivity for iNOS toward nNOS” value turned out to be 30 fold. Moreover, at mouse iNOS [1] (1,2,4-oxadiazole series), the IC50 came to 2 µM.
One may read the Ki as the equilibrium dissociation constant of an inhibitor or competing ligand from its target. Turning to `N=C(NCCC[C@H](N)C(=O)N1C[C@H](N)C[C@H]1C(N)=O)N[N+](=O)[O-]` [DP9, L-Nω-nitroarginine-(4R)-amino-L-prolinamide], the Ki at eNOS [4] was 110 µM; at nNOS [5] (read-out: Experimental Ki nNOS) it was 0.1 µM. Moreover, the “Selectivity in favor of nNOS over eNOS” value with nNOS [5] is on record as 1000 fold.
As for `CCSC(=N)NCCC[C@H](N)c1nc(C)no1` [JMV3457], the IC50 in the data set on iNOS is 19 µM; in the data set on nNOS [6], 9.4 µM; with eNOS [7] it was 45 µM.
On to `CCSC(=N)NCCC[C@H](N)C(=O)NCCCN` [JMV4246], for which the results for the IC50 in the data set with iNOS, in the data set with nNOS [6] and in the data set on eNOS [7] were 48 µM, 6.6 µM and 52 µM, respectively.
Regarding `CC(=N)NCCCC[C@H](N)C(=O)O` [L-NIL], the “Reversal of LPS-induced reduction of cell viability” value with RAW 264.7 cells [8] is “partially reversed the LPS effect”.
Turning to `CCSC(=N)N` [SEITU, reference compound], in the data set on RAW 264.7 cells [8], the “Reversal of LPS-induced reduction of cell viability” value is listed as “partially reversed the LPS effect”. Besides, the Kd is 1.7 ± 0.1 µM in data set [9] and 6.4 ± 1.5 µM in data set [10].
